From patent publication US8921314B2, “Conjugates of GLP-1 agonists and uses thereof” (Angiochem, Inc., priority 2008, dated 2014) come the findings set out here.

Data set [1] concerns mouse brain. To be noted: in vivo.
Experimental: To measure brain uptake of the exendin-4/Angiopep-2 conjugates, we used an in situ perfusion assay. […] The uptake of labeled exendin-4 and the exendin-4/Angiopep-2 conjugates was measured using the in situ brain perfusion method adapted in our laboratory for the study of drug uptake in the mouse brain (Dagenais et al., J Cereb Blood Flow Metab. 20:381-6, 2000; Cisternino et al., Pharm Res 18, 183-190, 2001). Briefly, the right common carotid artery of mice anesthetized with ketamine/xylazine (140/8 mg/kg i.p.) was exposed and ligated at the level of the bifurcation of the common carotid, rostral to the occipital artery. The common carotid was then catheterized rostrally with polyethylene tubing filled with heparin (25 U/ml) and mounted on a 26-gauge needle. The syringe containing the perfusion fluid ([^125I]-proteins or [^125I]-peptides in Krebs/bicarbonate buffer at pH 7.4, gassed with 95% O2 and 5% CO2) was placed in an infusion pump (Harvard pump PHD 2000; Harvard Apparatus) and connected to the catheter. Prior to the perfusion, the contralateral blood flow contribution was eliminated by severing the heart ventricles. The brain was perfused for 5 min at a flow rate of 1.15 ml/min. After perfusion of radiolabeled molecules, the brain was further perfused for 60 s with Krebs buffer, to wash away excess [^125I]-proteins. […]
Data set [2] deals with ob/ob mice. The data set can be described thus: treatment of obese (ob/ob) mice with exendin-4/Angiopep-2 conjugate. It counts as in vivo, mouse. To be noted: Q1D, higher doses (exendin-4 30 μg/kg, Exen-An2 48 μg/kg), vs control. As for the experimental part:
Obese mice (ob/ob mice) were administered the [Lys^39-MHA]exendin-4/Angiopep-2-Cys-NH2 conjugate (Exen-An2).
A 1.6 μg/kg dose of Exen-An2 is equivalent to a 1 μg/kg dose of exendin-4. The body weight of each mouse was measured daily. Food intake was estimated based on the mean values for each group, and glycemia was measured one hour following treatment.

Data set [3] has as its system DIO mice. The data set can be described thus: reduction of glycemia in DIO mice after bolus injection. The following applies: vs control. The class given is in vivo, mouse. The procedure:
We also tested the ability of the exendin-4-Angiopep-2 dimer conjugate to reduce glycemia in DIO mice. Mice were injected with a bolus containing a control, exendin-4, or the exendin-4-Angiopep-2 dimer conjugate.

Entries after “also recorded” stand apart in the source; their conditions may differ.

On to “[Lys^39-MHA]exendin-4/Angiopep-2-Cys-NH2 [Exen-An2]”, for which the brain distribution in data set [1] came to 10 ml/100 g/2 min.
Regarding exendin-4 [reference compound], in data set [2] (after 10 days, FIG. 5), the body weight gain entry was “lower than the control; also recorded: reduce weight gain”. Moreover, the food intake entry in data set [2] (FIG. 6) is given as “reduced; also recorded: reduce food intake”. Further, the glycemia entry in data set [3] was “reduced glycemia”. Besides, the brain distribution in data set [1] is listed as 0.2 ml/100 g/2 min.
